In data set [1] the target is Protein cereblon/Tubulin beta (Homo sapiens) (UniProt P68371+Q9H4B7+Q13509+P04350+Q3ZCM7+P07437+Q13885+Q9BVA1+Q9BUF5+Q96SW2+A6NNZ2). The data set can be described thus: Protac activity at CRBN/beta-tubulin in human HeLa cells assessed as reduction in beta-tubulin level at 10 to 1000 nM incubated for 48 hrs by immunoblotting analysis. Format: cell-based. The settings on record: dose 10-1000 nM.

In the next data set the test system is HUVEC. The data set is described as follows: Antiangiogenic activity in HUVECs assessed as reduction in cord formation at 2.5 nM incubated for 6 to 8 hrs by inverted microscopic analysis. Format: functional, cell-based. The settings on record: Homo sapiens, time 6-8 hrs.
Data set [2] is described as follows: Toxicity in nude mouse xenografted with human A549 cells assessed as body weight loss at 15 mg/kg, ip administered once every 2 days for 23 days and measured every 3 days. The settings on record: in vivo, 552 h, time 23 day. Format: organism-based.
In the next data set the target is Tubulin (Homo sapiens) (UniProt P68371+Q9H4B7+P0DPH7+P68366+Q13509+Q71U36+P04350+Q3ZCM7+P07437+P68363+Q9BQE3+Q6PEY2+Q13885+Q9BVA1+Q9BUF5). The data set is described as follows: Inhibition of microtubule polymerization in human HepG2 cells by immunofluorescence assay. Format: cell-based.
The subject of the next data set is HepG2. The data set is described as follows: Induction of intracellular ROS generation in human HepG2 cells. The data set is classed as functional, cell-based.

The values below come from ChEMBL document CHEMBL5518186, “Discovery of the cereblon-recruiting tubulin PROTACs effective in overcoming Taxol resistance in vitro and in vivo” (Eur J Med Chem, 2024).

Structures are written as SMILES. Activity calls are given as the source filed them. No cut-off for these calls is given here.

As to `COc1ccc(/C=C\c2cc(OC)c(OC)c(OC)c2)cc1OC(=O)CCCNc1cccc2c1C(=O)N(C1CCC(=O)NC1=O)C2=O` (stereo not given), the result (in data set [1]; in the data set on HUVEC; in the data set with HepG2) was Active. Also, the Activity result in data set [2] is reported as “Non-Toxic”. Further, the inhibition entry on Tubulin (Homo sapiens) is “Active”.
